Results as given in US20250319063A1, “METHODS AND COMPOUNDS FOR RESTORING MUTANT P53 FUNCTION” (PMV PHARMACEUTICALS, INC., priority 2022, published 2025).
“Also recorded” adds a separate entry of the source. Read-outs that look alike come from different tables or passages of the source.

Assay: Single oral dose plasma pharmacokinetics in fasted and fed healthy subjects (food effect, ethnicity)
Assay type: in vivo, human
Conditions: for Tmax / Vd/F / half-life / AUC(0-t) / AUC(0-inf) / Cmax: both sexes, human, plasma, po; for Vd/F: read-out: Vz/F, GeoMean; for half-life: read-out: t½, GeoMean (converted)
Protocol: Compound 1 pharmacokinetics were analyzed in healthy subjects administered Compound 1 in a fasted state. A subject was considered fasted if the subject fasted overnight for at least 10 hours and water was permitted ad libitum except for 1 hour before and after drug administration. For fasted subjects, Compound 1 was administered with at least 8 ounces (240 mL) of water. Compound 1 pharmacokinetics were also analyzed in healthy subjects administered Compound 1 in a fed state. A subject was considered fed after consuming a high-fat meal 30 minutes prior to drug administration, and the meal was finished at least 5 minutes prior to drug administration. For both fasted and fed subjects, no food was permitted for at least 4 hours post-dose and water was permitted starting at 1 hour post-dose.
Subjects were healthy, non-smoking male and female Caucasian/non-Asian or Japanese participants 18 to 55 years of age with a BMI between […].
In Part 1 of the study, analysis was performed to compare 1000 mg Compound 1 in fed and fasted states. A dose of 1000 mg of Compound 1 consisted of two 500 mg tablets administered as a single oral dose. The analysis of Part 1 was performed at two separate time points in two different schemes (1A and 1B).
In scheme 1A, at period 1, Compound 1 analyzed in healthy subjects administered 1000 mg Compound 1 (n=3) in a fed state. Following a washout period of 7-9 days, these subjects were then administered 1000 mg Compound 1 in a fasted state.
Separately, in scheme 1B, at period 1, Compound 1 was analyzed in healthy subjects administered 1000 mg Compound 1 (n=3) in a fasted state. Following a washout period of 7-9 days, these subjects were then administered 1000 mg Compound 1 in a fed state.
In Part 2 of the study, analysis was performed to compare 2000 mg Compound 1 in fed and fasted states and also to compared ethnicity of Caucasian/non-Asian subjects and Japanese subjects. A dose of 2000 mg of Compound 1 consisted of four 500 mg tablets administered as a single oral dose.
For Caucasian/non-Asian subjects (n=20) the analysis was performed at two separate time points in two different schemes (2A and 2B). During scheme 2A, at period 1, Compound 1 was analyzed in subjects administered 2000 mg Compound 1 (n=10) in a fed state. Following a washout period of 7-9 days, at period 2, these subjects were then administered 2000 mg Compound 1 in a fasted state. Separately in scheme 2B, at period 1, Compound 1 was analyzed in subjects administered 2000 mg Compound 1 (n=10) in a fasted state. Following a washout period of 7-9 days, at period 2, these subjects were then administered 2000 mg Compound 1 in a fed state.
For Japanese subjects (n=6), Compound 1 pharmacokinetics were analyzed in subjects administered 2000 mg Compound 1 in a fasted state.
Blood for the analysis of study drug (Compound 1) and metabolite (M1) were collected.
Various pharmacokinetic (PK) parameters were determined for each subject. (Tables 9-12 and FIGS. 23-28).
Statistical analysis of Compound 1 plasma PK parameters were evaluated for food effects for Part 1 (Table 11) and Part 2 (Table 12). The log-transformed PK parameters were analyzed using an analysis of variance model with treatment (fed/fasted condition) and period as fixed effects and participant as a random effect.

[1] = 1000 mg, 1000 mg oral, Fasted (Part 1)
[2] = 1000 mg, 1000 mg oral, Fed (Part 1)
[3] = 2000 mg, 2000 mg oral, Fasted, Caucasian/Non-Asian
[4] = 2000 mg, 2000 mg oral, Fasted, Japanese
[5] = 2000 mg, 2000 mg oral, Fed, Caucasian/Non-Asian

CNC(=O)c1ccc(NCC#Cc2cc3c(N[C@@H]4CCN(C)C[C@@H]4F)cccc3n2CC(F)(F)F)c(OC)c1 [Compound 1, 4-((3-(4-(((3S,4R)-3-fluoro-1-methylpiperidin-4-yl)amino)-1-(2,2,2-trifluoroethyl)-1H-indol-2-yl)prop-2-yn-1-yl)amino)-3-methoxy-N-methylbenzamide]
Tmax (1000 mg, 1000 mg oral, Fasted (Part 1), read-out: Tmax, Minimum, Maximum): 1.54 to 2.51 h
Vd/F [1]: 148 L
half-life [1]: 15.4 h
AUC(0-t) (1000 mg, 1000 mg oral, Fed (Part 1), read-out: AUC0-24, GeoMean): 119 µg·h/mL
AUC(0-t) (1000 mg, 1000 mg oral, Fed (Part 1), read-out: AUC0-96, GeoMean): 177 µg·h/mL
AUC(0-inf) (1000 mg, 1000 mg oral, Fed (Part 1), read-out: AUC0-inf, GeoMean): 180 µg·h/mL
AUC(0-inf) (1000 mg, 1000 mg oral, Fed (Part 1), read-out: AUC0-inf, Geometric Mean (analysis of variance model)): 180 µg·h/mL
AUC(0-t) (1000 mg, 1000 mg oral, Fed (Part 1), read-out: AUC0-last, GeoMean): 177 µg·h/mL
AUC(0-t) (1000 mg, 1000 mg oral, Fed (Part 1), read-out: AUC0-last, Geometric Mean (analysis of variance model)): 177 µg·h/mL
Cmax (1000 mg, 1000 mg oral, Fed (Part 1), read-out: Cmax, GeoMean): 10600 ng/mL
Cmax (1000 mg, 1000 mg oral, Fed (Part 1), read-out: Cmax, Geometric Mean (analysis of variance model)): 10600 ng/mL
Tmax (1000 mg, 1000 mg oral, Fed (Part 1), read-out: Tmax, Median): 3.25 h
Tmax (1000 mg, 1000 mg oral, Fed (Part 1), read-out: Tmax, Minimum, Maximum): 1.51 to 5.01 h
Vd/F [2]: 127 L
half-life [2]: 15.8 h
AUC(0-inf) (2000 mg, 2000 mg oral, Fasted (Part 2), read-out: AUC0-inf, Geometric Mean (analysis of variance model)): 260 µg·h/mL
AUC(0-t) (2000 mg, 2000 mg oral, Fasted (Part 2), read-out: AUC0-last, Geometric Mean (analysis of variance model)): 259 µg·h/mL
Cmax (2000 mg, 2000 mg oral, Fasted (Part 2), read-out: Cmax, Geometric Mean (analysis of variance model)): 10400 ng/mL
AUC(0-t) (2000 mg, 2000 mg oral, Fasted, Caucasian/Non-Asian, read-out: AUC0-24, GeoMean): 138 µg·h/mL
AUC(0-t) (2000 mg, 2000 mg oral, Fasted, Caucasian/Non-Asian, read-out: AUC0-96, GeoMean): 255 µg·h/mL
AUC(0-inf) (2000 mg, 2000 mg oral, Fasted, Caucasian/Non-Asian, read-out: AUC0-inf, GeoMean): 259 µg·h/mL
AUC(0-t) (2000 mg, 2000 mg oral, Fasted, Caucasian/Non-Asian, read-out: AUC0-last, GeoMean): 254 µg·h/mL
Cmax (2000 mg, 2000 mg oral, Fasted, Caucasian/Non-Asian, read-out: Cmax, GeoMean): 10300 ng/mL
Tmax (2000 mg, 2000 mg oral, Fasted, Caucasian/Non-Asian, read-out: Tmax, Median): 2.52 h
Tmax (2000 mg, 2000 mg oral, Fasted, Caucasian/Non-Asian, read-out: Tmax, Minimum, Maximum): 1.03 to 5.94 h
Vd/F [3]: 212 L
half-life [3]: 19.9 h
AUC(0-t) (2000 mg, 2000 mg oral, Fasted, Japanese, read-out: AUC0-24, GeoMean): 193 µg·h/mL
AUC(0-t) (2000 mg, 2000 mg oral, Fasted, Japanese, read-out: AUC0-96, GeoMean): 326 µg·h/mL
AUC(0-inf) (2000 mg, 2000 mg oral, Fasted, Japanese, read-out: AUC0-inf, GeoMean): 338 µg·h/mL
AUC(0-t) (2000 mg, 2000 mg oral, Fasted, Japanese, read-out: AUC0-last, GeoMean): 326 µg·h/mL
Cmax (2000 mg, 2000 mg oral, Fasted, Japanese, read-out: Cmax, GeoMean): 14700 ng/mL
Tmax (2000 mg, 2000 mg oral, Fasted, Japanese, read-out: Tmax, Median): 3.94 h
Vd/F [4]: 149 L
half-life [4]: 17.4 h
AUC(0-inf) (2000 mg, 2000 mg oral, Fed (Part 2), read-out: AUC0-inf, Geometric Mean (analysis of variance model)): 465 µg·h/mL
AUC(0-t) (2000 mg, 2000 mg oral, Fed (Part 2), read-out: AUC0-last, Geometric Mean (analysis of variance model)): 449 µg·h/mL
Cmax (2000 mg, 2000 mg oral, Fed (Part 2), read-out: Cmax, Geometric Mean (analysis of variance model)): 19100 ng/mL
AUC(0-t) (2000 mg, 2000 mg oral, Fed, Caucasian/Non-Asian, read-out: AUC0-24, GeoMean): 250 µg·h/mL
AUC(0-t) (2000 mg, 2000 mg oral, Fed, Caucasian/Non-Asian, read-out: AUC0-96, GeoMean): 448 µg·h/mL
AUC(0-inf) (2000 mg, 2000 mg oral, Fed, Caucasian/Non-Asian, read-out: AUC0-inf, GeoMean): 479 µg·h/mL
AUC(0-t) (2000 mg, 2000 mg oral, Fed, Caucasian/Non-Asian, read-out: AUC0-last, GeoMean): 448 µg·h/mL
Cmax (2000 mg, 2000 mg oral, Fed, Caucasian/Non-Asian, read-out: Cmax, GeoMean): 19000 ng/mL
Tmax (2000 mg, 2000 mg oral, Fed, Caucasian/Non-Asian, read-out: Tmax, Median): 4.03 h
Tmax (2000 mg, 2000 mg oral, Fed, Caucasian/Non-Asian, read-out: Tmax, Minimum, Maximum): 2.11 to 8.08 h
Vd/F [5]: 137 L
half-life [5]: 22.7 h
plasma concentration-time profile (single oral doses): reached the maximum peak rapidly and declined roughly in a bi-exponential manner; also recorded: rapidly absorbed
